Measured values published in patent US11407767B2, “Heterocyclyl substituted pyrrolopyridines that are inhibitors of the CDK12 kinase” (The University of Nottingham, priority 2017, dated 2022).
pIC50: −log10 of the molar value.

Target: CDK12/CycK (Homo sapiens, UniProt Q9NYV4)
Assay: Inhibition of CDK12 (ADP-Glo kinase assay)
Format: biochemical
Settings: 60 nM CDK12/CycK, 30 minutes pre-incubation, 1 μM ATP, 0.5 μM RBER-IRStide substrate, 1 h at 25° C., read-out: CDK12/cyclin K IC50
Description: Assay buffer comprised 50 mM HEPES pH 7.5, 1 mM DTT, 20 mM MgCl2, 3 mM MnCl2, 3 μM Na3VO4 and 50 μg/ml PEG8000. Kinase reactions were carried out in 384-well Optiplates™ (PerkinElmer 6007299). Test compounds were dissolved & diluted in dimethyl sulfoxide (DMSO) and cross diluted into assay buffer with a final DMSO concentration of 1% (v/v) in the assay. Test compounds (or 1% DMSO in control and blank wells) were pre-incubated with 60 nM CDK12/CycK for 30 minutes. After this time 1 μM Adenosine-5′-triphosphate (ATP) and 0.5 μM RBER-IRStide substrate (ProQinase 0863-0000-1) were added to commence the kinase reaction. Incubations were carried out for 1 h at 25° C. with kinase activity determined using the ADP-Glo™ reagent from Promega according to the manufacturer's instructions. Light generated is proportional to kinase activity and measured using a luminometer (EnVision, PerkinElmer). The signal obtained in the blank wells (containing no kinase) was subtracted from all other wells and IC50 values were determined by fitting a sigmoidal curve to % inhibition of control versus Log10 compound concentration.

CDK12/CycK, sequence (Q9NYV4 whole entry): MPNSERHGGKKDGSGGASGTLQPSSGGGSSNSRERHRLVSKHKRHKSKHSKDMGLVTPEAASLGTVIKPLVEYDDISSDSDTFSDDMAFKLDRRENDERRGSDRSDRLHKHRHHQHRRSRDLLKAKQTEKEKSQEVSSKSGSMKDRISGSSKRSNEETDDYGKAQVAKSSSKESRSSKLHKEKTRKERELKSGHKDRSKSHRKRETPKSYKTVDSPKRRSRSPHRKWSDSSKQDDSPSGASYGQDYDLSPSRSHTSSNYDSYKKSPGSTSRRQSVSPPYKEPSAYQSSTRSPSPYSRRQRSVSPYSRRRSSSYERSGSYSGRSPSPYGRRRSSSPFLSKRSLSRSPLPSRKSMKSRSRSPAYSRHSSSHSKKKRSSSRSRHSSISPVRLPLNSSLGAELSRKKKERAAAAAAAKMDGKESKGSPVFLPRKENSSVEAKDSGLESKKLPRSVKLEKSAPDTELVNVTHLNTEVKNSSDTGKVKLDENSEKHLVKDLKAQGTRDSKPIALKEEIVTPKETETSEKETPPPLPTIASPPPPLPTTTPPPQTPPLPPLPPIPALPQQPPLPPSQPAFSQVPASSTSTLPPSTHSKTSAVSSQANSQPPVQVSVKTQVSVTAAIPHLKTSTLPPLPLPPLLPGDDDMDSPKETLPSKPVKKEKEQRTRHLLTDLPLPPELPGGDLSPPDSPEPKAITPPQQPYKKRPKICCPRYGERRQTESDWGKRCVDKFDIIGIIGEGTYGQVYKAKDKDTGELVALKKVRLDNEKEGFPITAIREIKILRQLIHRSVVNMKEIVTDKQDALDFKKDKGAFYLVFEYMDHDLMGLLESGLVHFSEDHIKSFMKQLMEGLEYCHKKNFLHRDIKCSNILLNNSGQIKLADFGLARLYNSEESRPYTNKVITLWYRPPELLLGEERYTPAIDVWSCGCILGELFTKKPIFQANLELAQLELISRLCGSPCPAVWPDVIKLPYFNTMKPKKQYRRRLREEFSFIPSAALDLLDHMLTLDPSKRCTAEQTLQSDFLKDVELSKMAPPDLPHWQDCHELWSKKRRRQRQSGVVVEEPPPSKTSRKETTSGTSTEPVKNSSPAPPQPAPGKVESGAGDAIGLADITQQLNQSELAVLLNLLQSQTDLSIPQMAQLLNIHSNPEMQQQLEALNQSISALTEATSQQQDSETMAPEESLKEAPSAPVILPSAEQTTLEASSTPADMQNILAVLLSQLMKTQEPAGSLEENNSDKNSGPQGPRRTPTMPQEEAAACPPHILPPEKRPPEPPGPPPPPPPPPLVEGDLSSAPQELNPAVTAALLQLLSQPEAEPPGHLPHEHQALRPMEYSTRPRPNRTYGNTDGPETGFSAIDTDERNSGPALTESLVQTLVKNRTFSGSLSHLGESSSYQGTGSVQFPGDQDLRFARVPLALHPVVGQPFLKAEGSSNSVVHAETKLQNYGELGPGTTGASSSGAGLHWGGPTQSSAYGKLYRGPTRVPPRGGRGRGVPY
CDK12/CycK, sequence (O75909 whole entry partner): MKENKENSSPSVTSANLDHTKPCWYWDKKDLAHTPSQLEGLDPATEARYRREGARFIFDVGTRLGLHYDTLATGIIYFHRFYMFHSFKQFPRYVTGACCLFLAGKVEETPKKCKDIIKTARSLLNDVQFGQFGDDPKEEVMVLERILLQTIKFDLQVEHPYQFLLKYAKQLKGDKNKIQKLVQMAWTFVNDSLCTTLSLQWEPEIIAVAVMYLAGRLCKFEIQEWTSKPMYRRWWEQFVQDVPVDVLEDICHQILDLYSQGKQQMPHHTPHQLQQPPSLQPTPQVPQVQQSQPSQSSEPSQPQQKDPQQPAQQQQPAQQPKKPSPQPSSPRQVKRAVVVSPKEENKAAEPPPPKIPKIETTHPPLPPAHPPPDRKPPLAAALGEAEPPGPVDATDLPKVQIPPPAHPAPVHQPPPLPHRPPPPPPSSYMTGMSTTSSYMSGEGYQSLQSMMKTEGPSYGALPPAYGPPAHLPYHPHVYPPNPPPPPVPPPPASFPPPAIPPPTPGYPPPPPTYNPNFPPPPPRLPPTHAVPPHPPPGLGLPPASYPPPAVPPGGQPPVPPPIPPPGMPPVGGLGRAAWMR

Row | pIC50 | Compound
1 | > 7.00 | C=CC(=O)N1CCC1C(=O)NCCc1cc2c(-c3cnn4ncccc34)ccnc2[nH]1 (single isomer, unassigned) [Example 40]
2 | > 7.00 | C=CC(=O)N1CCO[C@@H](C(=O)NCCc2cc3c(-c4cnn5ncccc45)ccnc3[nH]2)C1 (single isomer, unassigned) [Example 61]
3 | > 7.00 | CC(=O)N1CCO[C@H](C(=O)NCCc2cc3c(-c4cnn5ncccc45)ccnc3[nH]2)C1 (single isomer, unassigned) [Example 62]
4 | 6.00 to 7.00 | c1cnn2ncc(-c3ccnc4[nH]c([C@@H]5CCNC5)cc34)c2c1 (single isomer, unassigned) [Example 124, 3-(2-(Pyrrolidin-3-yl)-1H-pyrrolo[2,3-b]pyridin-4-yl)pyrazolo[1,5-b]pyridazine]
5 | 6.00 to 7.00 | c1cnn2ncc(-c3ccnc4[nH]c([C@H]5CCNC5)cc34)c2c1 (single isomer, unassigned) [Example 125, 3-(2-(Pyrrolidin-3-yl)-1H-pyrrolo[2,3-b]pyridin-4-yl)pyrazolo[1,5-b]pyridazine]
6 | > 7.00 | C=CC(=O)Nc1ccc(C(=O)N2CC[C@@H](c3cc4c(-c5cnn6ncccc56)ccnc4[nH]3)C2)cc1 (single isomer, unassigned) [Example 148, N-(4-(3-(4-(Pyrazolo[1,5-b]pyridazin-3-yl)-1H-pyrrolo[2,3-b]pyridin-2-yl)pyrrolidine-1-carbonyl)phenyl)acrylamide]
7 | > 7.00 | C=CC(=O)Nc1cccc(C(=O)N2CC[C@@H](c3cc4c(-c5cnn6ncccc56)ccnc4[nH]3)C2)c1 (single isomer, unassigned) [Example 149, N-(3-(3-(4-(Pyrazolo[1,5-b]pyridazin-3-yl)-1H-pyrrolo[2,3-b]pyridin-2-yl)pyrrolidine-1-carbonyl)phenyl)acrylamide]
8 | 4.52 to 6.00 | Cc1cc(-c2cnn3ncccc23)c2cc[nH]c2n1 [Example 1, 3-(6-Methyl-1H-pyrrolo[2,3-b]pyridin-4-yl)pyrazolo[1,5-b]pyridazine]
9 | 4.52 to 6.00 | CN(C)C(=O)c1cc2c(-c3cnn4ncccc34)ccnc2[nH]1 [Example 2, N,N-Dimethyl-4-(pyrazolo[1,5-b]pyridazin-3-yl)-1H-pyrrolo[2,3-b]pyridine-2-carboxamide]
10 | 4.52 to 6.00 | COCCNC(=O)c1cc2c(-c3cnn4ncccc34)ccnc2[nH]1 [Example 3, N-(2-Methoxyethyl)-4-(pyrazolo[1,5-b]pyridazin-3-yl)-1H-pyrrolo[2,3-b]pyridine-2-carboxamide]
11 | 4.52 to 6.00 | CC(C)CNC(=O)c1cc2c(-c3cnn4ncccc34)ccnc2[nH]1 [Example 4, N-Isobutyl-4-(pyrazolo[1,5-b]pyridazin-3-yl)-1H-pyrrolo[2,3-b]pyridine-2-carboxamide]
12 | 4.52 to 6.00 | CN(C)CCNC(=O)c1cc2c(-c3cnn4ncccc34)ccnc2[nH]1 [Example 5, N-(2-(Dimethylamino)ethyl)-4-(pyrazolo[1,5-b]pyridazin-3-yl)-1H-pyrrolo[2,3-b]pyridine-2-carboxamide]
13 | 4.52 to 6.00 | Cc1c[nH]c2nccc(-c3cnn4ncccc34)c12 [Example 8, 3-(3-Methyl-1H-pyrrolo[2,3-b]pyridin-4-yl)pyrazolo[1,5-b]pyridazine]
14 | 4.52 to 6.00 | Cc1cnc2[nH]ccc2c1-c1cnn2ncccc12 [Example 9, 3-(5-Methyl-1H-pyrrolo[2,3-b]pyridin-4-yl)pyrazolo[1,5-b]pyridazine]
15 | 4.52 to 6.00 | c1cnn2ncc(-c3ccnc4[nH]c(CN5CCOCC5)cc34)c2c1 [Example 12, 4-((4-(Pyrazolo[1,5-b]pyridazin-3-yl)-1H-pyrrolo[2,3-b]pyridin-2-yl)methyl)morpholine]
16 | 4.52 to 6.00 | O=C(CN1CCOCC1)NCc1cc2c(-c3cnn4ncccc34)ccnc2[nH]1 [Example 13, 2-Morpholino-N-((4-(pyrazolo[1,5-b]pyridazin-3-yl)-1H-pyrrolo[2,3-b]pyridin-2-yl)methyl)acetamide]
17 | 4.52 to 6.00 | CN1CCN(CC(=O)NCc2cc3c(-c4cnn5ncccc45)ccnc3[nH]2)CC1 [Example 14, 2-(4-Methylpiperazin-1-yl)-N-((4-(pyrazolo[1,5-b]pyridazin-3-yl)-1H-pyrrolo[2,3-b]pyridin-2-yl)methyl)acetamide]
18 | 4.52 to 6.00 | CC(C)(C)OC(=O)N1CCN(Cc2cc3c(-c4cnn5ncccc45)ccnc3[nH]2)CC1 [Example 15, tert-Butyl 4-((4-(pyrazolo[1,5-b]pyridazin-3-yl)-1H-pyrrolo[2,3-b]pyridin-2-yl)methyl)piperazine-1-carboxylate]

Row | pIC50 | Compound
19 | 6.00 to 7.00 | CN1CCN(Cc2cc3c(-c4cnn5ncccc45)ccnc3[nH]2)CC1 [Example 16, 3-(2-((4-Methylpiperazin-1-yl)methyl)-1H-pyrrolo[2,3-b]pyridin-4-yl)pyrazolo[1,5-b]pyridazine]
20 | 4.52 to 6.00 | CN(C)CCNCc1cc2c(-c3cnn4ncccc34)ccnc2[nH]1 [Example 17, N1,N1-Dimethyl-N2-((4-(pyrazolo[1,5-b]pyridazin-3-yl)-1H-pyrrolo[2,3-b]pyridin-2-yl)methyl)ethane-1,2-diamine]
21 | 4.52 to 6.00 | c1ccn2ncc(-c3ccnc4[nH]ccc34)c2c1 [Example 18, 4-(Pyrazolo[1,5-a]pyridin-3-yl)-1H-pyrrolo[2,3-b]pyridine]
22 | 4.52 to 6.00 | CCn1nccc1-c1ccnc2[nH]ccc12 [Example 19, 4-(1-Ethyl-1H-pyrazol-5-yl)-1H-pyrrolo[2,3-b]pyridine]
23 | 4.52 to 6.00 | COc1cnn2ncc(-c3ccnc4[nH]ccc34)c2c1 [Example 23, 5-Methoxy-3-(1H-pyrrolo[2,3-b]pyridin-4-yl)pyrazolo[1,5-b]pyridazine]
24 | 4.52 to 6.00 | COCCOc1cnn2ncc(-c3ccnc4[nH]ccc34)c2c1 [Example 24, 5-(2-Methoxyethoxy)-3-(1H-pyrrolo[2,3-b]pyridin-4-yl)pyrazolo[1,5-b]pyridazine]
25 | 4.52 to 6.00 | CC1(C)OCC(COc2cnn3ncc(-c4ccnc5[nH]ccc45)c3c2)O1 (stereo not drawn) [Example 25, 5-((2,2-Dimethyl-1,3-dioxolan-4-yl)methoxy)-3-(1H-pyrrolo[2,3-b]pyridin-4-yl)pyrazolo[1,5-b]pyridazine]
26 | 4.52 to 6.00 | Cc1ccc2c(-c3ccnc4[nH]ccc34)cnn2n1 [Example 26, 6-Methyl-3-(1H-pyrrolo[2,3-b]pyridin-4-yl)pyrazolo[1,5-b]pyridazine]
27 | 4.52 to 6.00 | c1cnc2ncc(-c3ccnc4[nH]ccc34)n2c1 [Example 29, 3-(1H-Pyrrolo[2,3-b]pyridin-4-yl)imidazo[1,2-a]pyrimidine]
28 | 6.00 to 7.00 | NCCc1cc2c(-c3cnn4ncccc34)ccnc2[nH]1 [Example 30, 2-(4-(Pyrazolo[1,5-b]pyridazin-3-yl)-1H-pyrrolo[2,3-b]pyridin-2-yl)ethan-1-amine]
29 | 6.00 to 7.00 | CCNCCc1cc2c(-c3cnn4ncccc34)ccnc2[nH]1 [Example 31, N-ethyl-2-(4-(pyrazolo[1,5-b]pyridazin-3-yl)-1H-pyrrolo[2,3-b]pyridin-2-yl)ethan-1-amine]
30 | 6.00 to 7.00 | O=C(NCCc1cc2c(-c3cnn4ncccc34)ccnc2[nH]1)[C@@H]1CCCN1C(=O)CCl [Example 41, (S)-1-(2-Chloroacetyl)-N-(2-(4-(pyrazolo[1,5-b]pyridazin-3-yl)-1H-pyrrolo[2,3-b]pyridin-2-yl)ethyl)pyrrolidine-2-carboxamide]
31 | 6.00 to 7.00 | C=CC(=O)N1CCC[C@H]1C(=O)N(C)CCc1cc2c(-c3cnn4ncccc34)ccnc2[nH]1 [Example 46, (S)-1-Acryloyl-N-methyl-N-(2-(4-(pyrazolo[1,5-b]pyridazin-3-yl)-1H-pyrrolo[2,3-b]pyridin-2-yl)ethyl)pyrrolidine-2-carboxamide]
32 | 4.52 to 6.00 | C=CC(=O)N1CCC[C@@H]1C(=O)N(C)CCc1cc2c(-c3cnn4ncccc34)ccnc2[nH]1 [Example 47, (R)-1-Acryloyl-N-methyl-N-(2-(4-(pyrazolo[1,5-b]pyridazin-3-yl)-1H-pyrrolo[2,3-b]pyridin-2-yl)ethyl)pyrrolidine-2-carboxamide]
33 | 6.00 to 7.00 | C=CC(=O)N1CCC[C@H](C(=O)N(C)CCc2cc3c(-c4cnn5ncccc45)ccnc3[nH]2)C1 [Example 48, (S)-1-Acryloyl-N-methyl-N-(2-(4-(pyrazolo[1,5-b]pyridazin-3-yl)-1H-pyrrolo[2,3-b]pyridin-2-yl)ethyl)piperidine-3-carboxamide]
34 | 6.00 to 7.00 | C=CC(=O)Nc1cccc(C(=O)N(C)CCc2cc3c(-c4cnn5ncccc45)ccnc3[nH]2)c1 [Example 49, 3-Acrylamido-N-methyl-N-(2-(4-(pyrazolo[1,5-b]pyridazin-3-yl)-1H-pyrrolo[2,3-b]pyridin-2-yl)ethyl)benzamide]
35 | 4.52 to 6.00 | C=CC(=O)N1CCC[C@H]1C(=O)N(CC)CCc1cc2c(-c3cnn4ncccc34)ccnc2[nH]1 [Example 50, (S)-1-Acryloyl-N-ethyl-N-(2-(4-(pyrazolo[1,5-b]pyridazin-3-yl)-1H-pyrrolo[2,3-b]pyridin-2-yl)ethyl)pyrrolidine-2-carboxamide]
36 | 4.52 to 6.00 | C=CC(=O)N1CCC[C@H]1C(=O)NCCc1cc2c(-c3ccnn3C)ccnc2[nH]1 [Example 51, (S)-1-Acryloyl-N-(2-(4-(1-methyl-1H-pyrazol-5-yl)-1H-pyrrolo[2,3-b]pyridin-2-yl)ethyl)pyrrolidine-2-carboxamide]
